# Reference: US5869456A, “Use of glutathione diesters” (priority 1995, dated 1999)
# Like-named read-outs stand apart in the source and are kept apart here.
# Experiments:
# [1] = tested on: Human Peripheral Blood Mononuclear Cells; conditions: for Thiol Levels, thiol found GSH / Thiol Levels, Total / Thiol Levels, thiol found GSH-ME: isolated PBM, 0.3 ml 80 mM thiol to 0.9 ml cells, 37° C.
# Experimental: (§1) T Cell and PBM Lysates: 120 μl 4 mM DTPA, total 360 μl sample/4.31% SSA (containing 0.5 mM DTPA), 100 μl Tris, 5μ mBBr; 20 min. in the dark, 15 μl glacial acetic acid.
# (§2) HPLC Analysis of Cellular Thiols. Samples were chromatographed on an Altex Ultrasphere ODS reverse phase column (5μ; 4.6 mm×25 cm), using one of three gradients: (1) Buffer A: 12.8% MeOH, 0.25% acetic acid, 87.75% H2 O, pH 3.9. (2) Buffer B: 90.0% MeOH, 0.25% acetic acid, 9.75% H2 O (no pH Adjustment). (3) Gradient 1: Initial, 100% A, linear gradient to 50% B at 25 min., linear gradient to 100% B at 35 min., wash with 100% B to 39.5 min.; step to 100% A at 40 min.; equilibration with 100% A to 48 min. Gradient 2: Initial, 100% A, linear gradient to 75% B at 25 min., remainder identical to Gradient 1. Gradient 3: Initial, 100% A, linear gradient to 65% A, 35% B at 25 minutes, remainder identical to gradient 1. Flow rates were 1 ml/min.
# PBM were isolated from whole blood (see Tables 1 and 3) washed with PBS, and re-suspended in PBS. To 0.9 ml cell suspension (5-8×10^6 cells) was added 0.3 ml of 80 mM GSH, GSH-ME or GSH-DE at pH 7. After incubation at 37° C. for the indicated times, the cells were recovered by centrifugation, washed with 14 ml PBS (2×), and lysed by addition of 4.31% of SSA/0.5 mM DTPA and 2-3 freeze-thaw cycles. After centrifugation, supernatants were derivatized for HPLC analysis.
# Human Erythrocytes [2] = conditions: for Thiol Levels, thiol found GSH / Thiol Levels, Total / Thiol Levels, thiol found GSH-ME: erythrocyte suspension, 80 mM thiol added (one-third vol), 37° C.
# Experimental: Analysis of Erythrocyte Thiol by DTNB. Cell supernatant (40 μl) was added to 1 ml of 6 mM DTNB (in 143 mM phosphate buffer, pH 7.5, containing 6.3 mM EDTA). The change in absorbance at 412 nm after 1 min was converted to a value for total thiol using a GSH standard curve. The GSH standard were prepared in a 1:2:2 mixture of PBS: 0.435M acetic acid: 10% SSA (containing 2 mM EDTA) ("RBC Mix").
# (§3) Derivatization of Cell Thiols for HPLC Analysis. Derivatization mixtures are as follows: Erythrocyte Lysates: 155 μl 50 mM DTPA (pH 7), 110 μl 3.33% SSA, total 180 μl cell supernatant plus "RBC Mix", 10 μl 0.1M mBBr (in CH3 CN), 100 μl of 2M Tris·HCl (pH 9 at room temperature). The samples were placed in the dark for 20-30 minutes at room temperature; the reaction was quenched with 90 μl of glacial acetic acid. Reduced Erythocyte Lysates. 155 μl mM DTT in 50 mM DTPA (pH 7), SSA, sample, and "RBC Mix" as above Tris was added and the samples were agitated at room temperature for 25 min. 20 μl Tris and 10 μl mBBr were added; the derivatization proceeds as above.
# as §2
# Whole blood was collected with EDTA or DTPA (0.5M, pH 7) as anticoagulant (0.4 ml/8-12 ml blood). Plasma and buffy coat were removed after centrifugation and the erythrocytes washed 3 times with 1-2 vol PBS/5 mM DTPA or EDTA. Packed erythrocytes were suspended in one-half vol. PBS. To each suspension was one-third vol. GSH, GSH-ME or GSH-DE (80 mM, pH 7). After incubation at 37° C. for the indicated times, aliquots were removed, washed (3-4×) with PBS/EDTA/DTPA, lysed with one volume 0.435M acetic acid, protein-precipitated with one volume 10% SSA/2 mM DTPA, and centrifuged to remove cell debris. Supernatants were derivatized for HPLC analysis as described in Materials and Methods.
# Human Erythrocytes [3] = conditions: whole blood + one-half volume 120 mM thiol, 30 minutes, 37° C.
# Experimental: as §3, §2
# Whole blood (see Table 1) was mixed with one-half volume of 120 mM GSH, GSH-ME, or GSH-DE at pH 7. The samples were incubated for 30 minutes at 37° C. and then centrifuged. After removal of plasma and buffy coat, the erythrocytes were washed and processed as described in Table 1.
# [4] = tested on: Hamsters (liver, kidney, blood plasma); test: Thiol levels in hamsters treated with GSH esters; format: in vivo, Syrian hamster; conditions: 1 hour later
# Experimental: Plasma Samples: 190 μl 50 mM DTPA, total 70 μ1 sample plus 3.33% SSA, 17.5 μl Tris, 10 μl of mBBr; after 20 min in the dark, 7.5 μl glacial acetic acid. Reduced Plasma Samples: 170μ 50 mM DTPA, 20 μl 16 mM DTT in 50 mM DTPA, remainder as above; the samples were agitated at room temperature for 20 min. After reduction, mBBr was added and the derivatization proceeds as above.
# Other Animal Tissues. 385 μl 50 mM DTPA, 140 μl sample. 20 μl mBBr, 40 μl Tris; 20 minutes in the dark, 15 μl glacial acetic acid. Standards for all sample types were prepared using identical derivatization procedures.
# Recovery of Tissues from Syrian Hamsters. Animals were anesthetized by i.p. administration of xylazine and ketamine, decapitated, and exsanguinated. Blood was mixed with 50 μl EDTA (0.5M, pH 7). Plasma was recovered by centrifugation; one-half vol. 10% SSA/0.5 mM DTPA was added. Liver: one lobe was removed, rinsed with H2 O, blotted, weighed, and homogenized in 5% SSA (0.5 Mm DTPA) (5 vol/g tissue). Kidney: one kidney was removed and decapsulated and then processed as with liver.
# BSO (6 mmol/kg) was given I.P. fasted animals 2 hours prior to giving GSH, GSH-ME, or GSH-DE (5 mmol/kg); values were determined 1 hour later. […] Each value represents determinations ±S.D. on 3-4 animals.
# [5] = tested on: Purified Human T-Lymphoctyes; test: Thiol levels in purified human T-lymphocytes after treatment with GSH esters; format: cell-based; conditions: purified T-cells, 0.3 ml 80 mM thiol to 0.9 ml cells, 37° C.
# Experimental: HPLC Analysis of Cellular Thiols. […] Flow rates were 1 ml/min.
# Purified T-cells were suspended in PBS. […] After incubation at 37° C. for the indicated times, cells were recovered and processed as described for PBM in Table 4.
# Where values for cysteine are not reported, levels are <0.3 nmol/10^7cells (for 7 min. samples) or <0.5 nmol/10^7 cells (for 90 mni. samples).
# [6] = tested on: Human Peripheral Blood Mononuclear Cells; conditions: 6 ml whole blood + 3 ml 60 mM thiol, 30 min, 37° C.; PBM
# Experimental: as §1, §2
# 6 mls. whole blood (see Table 1) was mixed with 3 ml of 60 mM GSH, GSH-ME or GSH-DE at pH 7. After 30 min incubation at 37° C., PBM were isolated by Ficoll-Hypaque density gradient centrifugation. Cells were washed with 14 ml PBS (2-3) and lysed with 4.31% SSA/0.5 mM DTPA (400 μl). After centrifugation, the supernatants were derivatized for HPLC analysis.
smiles,measurement,setting,value
"N[C@@H](CCC(=O)N[C@@H](CS)C(=O)NCC(=O)O)C(=O)O [GSH, L-γ-glutamyl-L-cysteinyl-glycine]","Thiol Levels, thiol found GSH","[1]; 7 min, donor A",1.86 nmol/10^6 cells
same,"Thiol Levels, thiol found GSH","[1]; 7 min, donor B",1.51 nmol/10^6 cells
same,"Thiol Levels, thiol found GSH","[1]; 45 min, donor B",1.16 ± 0.06 nmol/10^6 cells
same,"Thiol Levels, thiol found GSH","[1]; 90 min, donor A",1.60 nmol/10^6 cells
same,"Thiol Levels, thiol found GSH",Human Erythrocytes [2]; 7 min,1.91 ± 0.05 mM
same,"Thiol Levels, thiol found GSH",Human Erythrocytes [2]; 45 min,2.04 ± 0.06 mM
same,"Thiol Levels, thiol found GSH",Human Erythrocytes [2]; 90 min,1.83 ± 0.07 mM
same,"Thiol Levels Found, GSH",Human Erythrocytes [3],2.12 ± 0.47 mM
same,"Thiol Levels Found, Total",Human Erythrocytes [3],2.12 ± 0.47 mM
"CCCCS(=N)(=O)CCC(N)C(=O)O [BSO, L-buthionine sulfoximine]",Kidney thiol found GSH,"[4]; fasted hamsters, BSO 6 mmol/kg I.P. 2 hours before thiol 5 mmol/kg, kidney",1.00 ± 0.19 µmol/g
same,Liver thiol found GSH,"[4]; fasted hamsters, BSO 6 mmol/kg I.P. 2 hours before thiol 5 mmol/kg, liver",5.10 ± 0.51 µmol/g
same,"Thiol Levels, thiol found GSH","[5]; 7 min, donor A",2.39 ± 0.09 nmol/10^7 cells
same,"Thiol Levels, thiol found GSH","[5]; 90 min, donor B",< 0.6 nmol/10^7 cells
"CCOC(=O)CNC(=O)[C@H](CS)NC(=O)CC[C@H](N)C(=O)O [GSH-ME, glutathione monoethyl (glycyl) ester]","Thiol Levels Found, GSH",[6],1.46 nmol/10^6 cells
same,"Thiol Levels Found, GSH-ME",[6],2.08 nmol/10^6 cells
same,"Thiol Levels Found, Total",[6],3.54 nmol/10^6 cells
same,total thiols in human PBM,"[1]; in 90 min, text summary of Table 4",10.6 mM
same,"Thiol Levels, Total","[1]; 7 min, donor A",3.32 ± 0.19 nmol/10^6 cells
same,"Thiol Levels, thiol found GSH","[1]; 7 min, donor A",2.05 ± 0.08 nmol/10^6 cells
same,"Thiol Levels, thiol found GSH-ME","[1]; 7 min, donor A",1.27 ± 0.11 nmol/10^6 cells
same,"Thiol Levels, Total","[1]; 45 min, donor B",4.39 ± 0.25 nmol/10^6 cells
same,"Thiol Levels, thiol found GSH","[1]; 45 min, donor B",1.64 ± 0.06 nmol/10^6 cells
same,"Thiol Levels, thiol found GSH-ME","[1]; 45 min, donor B",2.75 ± 0.19 nmol/10^6 cells
same,"Thiol Levels, Total","[1]; 90 min, donor A",10.7 ± 1.3 nmol/10^6 cells
same,"Thiol Levels, thiol found GSH","[1]; 90 min, donor A",3.45 ± 0.39 nmol/10^6 cells
same,"Thiol Levels, thiol found GSH-ME","[1]; 90 min, donor A",7.23 ± 0.88 nmol/10^6 cells
same,Blood plasma levels of GSH,"[4]; hamsters, 5 mmol/kg after BSO",not affected
same,"Thiol Levels, Total",Human Erythrocytes [2]; 7 min,2.65 ± 0.31 mM
same,"Thiol Levels, thiol found GSH",Human Erythrocytes [2]; 7 min,1.72 ± 0.27 mM
same,"Thiol Levels, thiol found GSH-ME",Human Erythrocytes [2]; 7 min,0.932 ± 0.04 mM
same,"Thiol Levels, Total",Human Erythrocytes [2]; 45 min,3.49 ± 0.35 mM
same,"Thiol Levels, thiol found GSH",Human Erythrocytes [2]; 45 min,1.83 ± 0.31 mM
same,"Thiol Levels, thiol found GSH-ME",Human Erythrocytes [2]; 45 min,1.66 ± 0.04 mM
same,"Thiol Levels, Total",Human Erythrocytes [2]; 90 min,3.57 ± 0.38 mM
same,"Thiol Levels, thiol found GSH",Human Erythrocytes [2]; 90 min,1.90 ± 0.30 mM
same,"Thiol Levels, thiol found GSH-ME",Human Erythrocytes [2]; 90 min,1.67 ± 0.08 mM
same,total RBC thiol levels,Human Erythrocytes [2]; summary of Table 1,about 3 mM
same,"Thiol Levels Found, GSH",Human Erythrocytes [3],2.35 ± 0.52 mM
same,"Thiol Levels Found, GSH-ME",Human Erythrocytes [3],3.45 ± 0.73 mM
same,"Thiol Levels Found, Total",Human Erythrocytes [3],5.80 ± 1.25 mM
